Legend:
[1] = Elimination half-life of the active ingredient in man; details: human, in vivo
Excerpt: The active ingredient of the invention may be administered periodically, e.g. weekly or biweekly, or daily or several times a day, depending on the patient's needs. […] Therefore, a periodical treatment, e.g. weekly, may be satisfactory.

plasma proteins = assay: Plasma protein binding; assay type: in vitro ADME; details: read-out: bound to plasma proteins (converted)
Excerpt: It is known that the favourable hemodynamic effects following intravenous administration of levosimendan are seen considerably longer than levosimendan concentrations are observed in plasma. […] However, it has also been discovered that only about 30% of the active metabolite is bound to plasma proteins whereas as much as 98% of levosimendan is bound to plasma proteins. Therefore, the active free concentration of the active metabolite in plasma is proportionally much higher than that of levosimendan.

[2] = Plasma concentrations following 24 h levosimendan infusion in heart failure patients; assay type: in vivo, human; details: levosimendan 0.2 μg/kg/min for 24 hours; for half-life: human, plasma, intravenous, 0.2 ug/kg, FIG. 1, read-out: elimination half-life (converted)
Method: Plasma concentrations of levosimendan and its active metabolite (R)-N-[4-(1,4,5,6-tetrahydro-4-methyl-6-oxo-3-pyridazinyl)phenyl]acetamide (OR-1896) following administration of 0.2 μg/kg/min of levosimendan for 24 hours in heart failure patients are shown in FIG. 1.

[3] = tested on: congestive heart failure patients; assay: All-cause mortality (Kaplan Meier) in congestive heart failure patients, dobutamine controlled studies; assay type: in vivo, human; details: intravenous levosimendan 0.1-0.2 μg/kg/min for 24 hours vs dobutamine; FIG. 2

half-life [1] | time plasma concentrations are detectable after the infusion ([2]; FIG. 1) | Structure (SMILES) | fraction unbound (plasma proteins) | half-life [2] | plasma concentrations after discontinuation of infusion ([2]; one day after discontinuation) | all-cause mortality (0-14 days), Kaplan Meier survival curves [3]
~72 h | – | CC(=O)Nc1ccc(C2=NNC(=O)CC2C)cc1 (centres unmarked) [(I), N-[4-(1,4,5,6-tetrahydro-4-methyl-6-oxo-3-pyridazinyl)phenyl]acetamide] | – | – | – | –
– | 12 days | CC(=O)Nc1ccc(C2=NNC(=O)C[C@H]2C)cc1 [OR-1896, (R)-N-[4-(1,4,5,6-tetrahydro-4-methyl-6-oxo-3-pyridazinyl)phenyl]acetamide] | ~0.7 | ~77 h | – | –
– | – | C[C@@H]1CC(=O)NN=C1c1ccc(NN=C(C#N)C#N)cc1 [levosimendan] | 0.02 | ~1.3 h | not detectable one day after the discontinuation of infusion | survival curves are clearly diverging throughout the observation period

— patent US20040180895A1, “Use of a pyridazinone derivative” (priority 2001, published 2004)
